Data: the supplement of paper PMC10307832

Tests used:
Assay in all cases: relative viability (nuclei count vs DMSO), 5 days (fraction); higher = more cells survive
LCLC-97TM1 = test system: LCLC-97TM1
How it was run: (§1)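 Lung cancer cell lines, seeded in 1536-well plates, were treated the following day by pin tool with a single drug or with five library-drug doses (not always all listed) in √10 steps on top of a fixed anchor-drug dose. Cells were fixed and nuclei stained in one step after 5 days, and nuclei were counted. Relative viability is the nuclei count for treated wells divided by that for vehicle wells, reported as medians of duplicate plates.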

NCI-H1944 = test system: NCI-H1944
How it was run: as §1

HCC-78 = test system: HCC-78
How it was run: as §1

EPLC-272H = test system: EPLC-272H
How it was run: as §1

NCI-H1915 = test system: NCI-H1915
How it was run: as §1

UMC-11 = test system: UMC-11
How it was run: as §1

LC-2-ad = test system: LC-2-ad
How it was run: as §1

NCI-H2085 = test system: NCI-H2085
How it was run: as §1

NCI-H1792 = test system: NCI-H1792
How it was run: as §1

NCI-H1755 = test system: NCI-H1755
How it was run: as §1

COR-L 105 = test system: COR-L 105
How it was run: as §1

SW 900 = test system: SW 900
How it was run: as §1

NCI-H1793 = test system: NCI-H1793
How it was run: as §1

SK-LU-1 = test system: SK-LU-1
How it was run: as §1

NCI-H460 = test system: NCI-H460
How it was run: as §1

HCC-366 = test system: HCC-366
How it was run: as §1

LU99A = test system: LU99A
How it was run: as §1

NCI-H358 = test system: NCI-H358
How it was run: as §1

NCI-H2170 = test system: NCI-H2170
How it was run: as §1

A-427 = test system: A-427
How it was run: as §1

LXF-289 = test system: LXF-289
How it was run: as §1

NCI-H1975 = test system: NCI-H1975
How it was run: as §1

HOP-62 = test system: HOP-62
How it was run: as §1

## CC1(C)CCC(c2ccc(Cl)cc2)=C(CN2CCN(c3ccc(C(=O)NS(=O)(=O)c4ccc(N[C@H](CCN5CCOCC5)CSc5ccccc5)c(S(=O)(=O)C(F)(F)F)c4)cc3)CC2)C1 [Navitoclax] + N=C(N)NC(=N)NCCc1ccccc1 [Phenformin] (partner 250 µM)
LCLC-97TM1; first compound 0.005 µM
  relative viability: 0.447
LCLC-97TM1; first compound 0.01581 µM
  relative viability: 0.504
LCLC-97TM1; first compound 0.05 µM
  relative viability: 0.403
LCLC-97TM1; first compound 0.1581 µM
  relative viability: 0.477
LCLC-97TM1; first compound 0.5 µM
  relative viability: 0.507
NCI-H1944; first compound 0.005 µM
  relative viability: 0.183
NCI-H1944; first compound 0.01581 µM
  relative viability: 0.191
NCI-H1944; first compound 0.05 µM
  relative viability: 0.182
NCI-H1944; first compound 0.1581 µM
  relative viability: 0.211
NCI-H1944; first compound 0.5 µM
  relative viability: 0.146
HCC-78; first compound 0.005 µM
  relative viability: 0.727
HCC-78; first compound 0.01581 µM
  relative viability: 0.692
HCC-78; first compound 0.1581 µM
  relative viability: 0.645
HCC-78; first compound 0.5 µM
  relative viability: 0.75
EPLC-272H; first compound 0.005 µM
  relative viability: 0.376
EPLC-272H; first compound 0.05 µM
  relative viability: 0.324
EPLC-272H; first compound 0.1581 µM
  relative viability: 0.329
EPLC-272H; first compound 0.5 µM
  relative viability: 0.253
NCI-H1915; first compound 0.005 µM
  relative viability: 0.382
NCI-H1915; first compound 0.01581 µM
  relative viability: 0.431
NCI-H1915; first compound 0.05 µM
  relative viability: 0.441
NCI-H1915; first compound 0.1581 µM
  relative viability: 0.42
NCI-H1915; first compound 0.5 µM
  relative viability: 0.388
UMC-11; first compound 0.005 µM
  relative viability: 0.303
UMC-11; first compound 0.01581 µM
  relative viability: 0.323
UMC-11; first compound 0.05 µM
  relative viability: 0.35
UMC-11; first compound 0.1581 µM
  relative viability: 0.242
UMC-11; first compound 0.5 µM
  relative viability: 0.273
LC-2-ad; first compound 0.005 µM
  relative viability: 0.577
LC-2-ad; first compound 0.01581 µM
  relative viability: 0.653
LC-2-ad; first compound 0.05 µM
  relative viability: 0.58
LC-2-ad; first compound 0.1581 µM
  relative viability: 0.505
LC-2-ad; first compound 0.5 µM
  relative viability: 0.572
NCI-H2085; first compound 0.005 µM
  relative viability: 0.732
NCI-H2085; first compound 0.01581 µM
  relative viability: 0.847
NCI-H2085; first compound 0.05 µM
  relative viability: 0.593
NCI-H2085; first compound 0.1581 µM
  relative viability: 0.746
NCI-H2085; first compound 0.5 µM
  relative viability: 0.786
NCI-H1792; first compound 0.005 µM
  relative viability: 0.258
NCI-H1792; first compound 0.01581 µM
  relative viability: 0.179
NCI-H1792; first compound 0.5 µM
  relative viability: 0.112
NCI-H1755; first compound 0.005 µM
  relative viability: 0.639
NCI-H1755; first compound 0.01581 µM
  relative viability: 0.659
NCI-H1755; first compound 0.05 µM
  relative viability: 0.575
NCI-H1755; first compound 0.1581 µM
  relative viability: 0.521
NCI-H1755; first compound 0.5 µM
  relative viability: 0.43
COR-L 105; first compound 0.005 µM
  relative viability: 0.464
COR-L 105; first compound 0.01581 µM
  relative viability: 0.746
COR-L 105; first compound 0.05 µM
  relative viability: 0.431
COR-L 105; first compound 0.1581 µM
  relative viability: 0.503
COR-L 105; first compound 0.5 µM
  relative viability: 0.405
SW 900; first compound 0.005 µM
  relative viability: 0.484
SW 900; first compound 0.01581 µM
  relative viability: 0.638
SW 900; first compound 0.05 µM
  relative viability: 0.586
SW 900; first compound 0.1581 µM
  relative viability: 0.556
SW 900; first compound 0.5 µM
  relative viability: 0.41
NCI-H1793; first compound 0.005 µM
  relative viability: 0.527
NCI-H1793; first compound 0.01581 µM
  relative viability: 0.445
NCI-H1793; first compound 0.1581 µM
  relative viability: 0.309
NCI-H1793; first compound 0.5 µM
  relative viability: 0.313
SK-LU-1; first compound 0.005 µM
  relative viability: 0.552
SK-LU-1; first compound 0.01581 µM
  relative viability: 0.608
SK-LU-1; first compound 0.05 µM
  relative viability: 0.501
SK-LU-1; first compound 0.1581 µM
  relative viability: 0.463
SK-LU-1; first compound 0.5 µM
  relative viability: 0.513
NCI-H460; first compound 0.005 µM
  relative viability: 0.509
NCI-H460; first compound 0.01581 µM
  relative viability: 0.512
NCI-H460; first compound 0.05 µM
  relative viability: 0.529
NCI-H460; first compound 0.1581 µM
  relative viability: 0.522
NCI-H460; first compound 0.5 µM
  relative viability: 0.515
HCC-366; first compound 0.005 µM
  relative viability: 0.708
HCC-366; first compound 0.01581 µM
  relative viability: 0.616
HCC-366; first compound 0.1581 µM
  relative viability: 0.619
HCC-366; first compound 0.5 µM
  relative viability: 0.588
LU99A; first compound 0.005 µM
  relative viability: 0.878
LU99A; first compound 0.01581 µM
  relative viability: 0.993
LU99A; first compound 0.05 µM
  relative viability: 0.726
LU99A; first compound 0.1581 µM
  relative viability: 0.829
LU99A; first compound 0.5 µM
  relative viability: 0.928
NCI-H358; first compound 0.005 µM
  relative viability: 0.362
NCI-H358; first compound 0.01581 µM
  relative viability: 0.376
NCI-H358; first compound 0.05 µM
  relative viability: 0.357
NCI-H358; first compound 0.1581 µM
  relative viability: 0.343
NCI-H358; first compound 0.5 µM
  relative viability: 0.424
NCI-H2170; first compound 0.005 µM
  relative viability: 0.442
NCI-H2170; first compound 0.01581 µM
  relative viability: 0.47
NCI-H2170; first compound 0.05 µM
  relative viability: 0.391
NCI-H2170; first compound 0.1581 µM
  relative viability: 0.42
NCI-H2170; first compound 0.5 µM
  relative viability: 0.347
A-427; first compound 0.005 µM
  relative viability: 0.342
A-427; first compound 0.01581 µM
  relative viability: 0.359
A-427; first compound 0.05 µM
  relative viability: 0.179
A-427; first compound 0.1581 µM
  relative viability: 0.287
A-427; first compound 0.5 µM
  relative viability: 0.273
LXF-289; first compound 0.005 µM
  relative viability: 0.524
LXF-289; first compound 0.01581 µM
  relative viability: 0.531
LXF-289; first compound 0.05 µM
  relative viability: 0.498
LXF-289; first compound 0.1581 µM
  relative viability: 0.506
LXF-289; first compound 0.5 µM
  relative viability: 0.5
NCI-H1975; first compound 0.005 µM
  relative viability: 0.427
NCI-H1975; first compound 0.01581 µM
  relative viability: 0.428
NCI-H1975; first compound 0.05 µM
  relative viability: 0.454
NCI-H1975; first compound 0.1581 µM
  relative viability: 0.414
NCI-H1975; first compound 0.5 µM
  relative viability: 0.42
HOP-62; first compound 0.005 µM
  relative viability: 0.639
HOP-62; first compound 0.01581 µM
  relative viability: 0.673
HOP-62; first compound 0.05 µM
  relative viability: 0.65
HOP-62; first compound 0.1581 µM
  relative viability: 0.669
HOP-62; first compound 0.5 µM
  relative viability: 0.702
